Literature values as cited in US8895779B2 (BioAmber Inc., priority 2010, dated 2014).

Conditions: Table 1, Run 1, acid charged

O=C(O)CCCCC(=O)O [AA, adipic acid]
pKa1: 4.43
